Source: patent US20190284176A1, “COMPOSITIONS AND METHODS FOR TREATING CARDIOMYOPATHY” (CASE WESTERN RESERVE UINVERSITY, priority 2018, published 2019)
“Also recorded” adds a separate entry of the source.

What was measured:
CCR2 [1] = molecular target: T1, CCR2 (Mus musculus, UniProt P51683); assay: RS-504393 CCR2 blockade in early-phase TAC pressure overload hypertrophy; assay type: in vivo; details: for cardiac macrophage populations / numbers: before and after 1-wk TAC, 2 mg/kg twice daily oral gavage, FACS (FIG. 7), 2 mg/kg
T1 construct: tissue Jackson laboratory (mice); host or cells: whole animal: WT C57BL/6J mice; CCR2 on circulating classic monocytes / infiltrating macrophages
Procedure: (§1) Macrophage depletion was achieved by injection (i.v.) of Clodronate liposomes at 500 ug/kg on every other day, starting from 1-day before or 14-day after cardiac surgery as indicated in specific experiments. PBS-containing liposomes were used as vehicle control (Veh). Clodronate liposomes and control liposomes were obtained from the nonprofit Consortium Foundation Clodronate Liposomes. To inhibit monocyte trafficking in vivo, RS-504393 was dissolved in DMSO, diluted 1:20 in PBS and administrated at 2 mg/kg twice daily by oral gavage, starting from 1-3 day before or 14-day after cardiac surgery as indicated in specific experiments. PBS with 5% DMSO was used as vehicle control.
Transverse aortic constriction (TAC) model and echocardiography were performed as described previously. Mice were anaesthetized by ketamine xylazine cocktail (100 uL i.p.) for TAC surgery to reduce aorta diameter to 27-gauge. Buprenorphine was administrated daily (i.p.) for first 5-days post-TAC. Blood pressure gradient across ligation site was confirmed by Doppler echography. For echocardiography, mice were anaesthetized by inhalation of 1% isoflurane vaporized in 100% oxygen. LV function was recorded at parasternal short axis view in B-mode and M-mode on a VEVO 770 High-Resolution In Vivo Micro-Imaging System (VisualSonics). ECHO data were recorded at steady heart rate above 500 bpm. LV function was calculated as ejection fraction (EF) or fractional shortening (FS).
Peritoneal macrophages were collected as described previously. Cardiac macrophages were gated from whole heart cells using surface antibodies (CD45+CD11b+F4/80+Ly6G-CD64+). Mouse heart is perfused, excised, minced, digested with Type I collagenase, mechanically disrupted and filtered through 70 μm cell strainer to get single cell suspension. Cells are collected by centrifugation, subjected to live-death dye and surface antibody staining, and analyzed by flow cytometry. Cells were also sorted by flow cytometry to collect cardiac macrophages. […] After RBC lysis, cells were stained with surface antibodies and analyzed by FACS. […]

CCR2 [2] = molecular target: T1, CCR2; assay: RS-504393 administration from day 14 post-TAC in established pressure overload hypertrophy; assay type: in vivo; details: established POH
Procedure: as §1
Transverse aortic constriction (TAC) model and echocardiography were performed as described previously. […] LV function was recorded at parasternal short axis view in B-mode and M-mode on a VEVO 770 High-Resolution In Vivo Micro-Imaging System (VisualSonics). ECHO data were recorded at steady heart rate above 500 bpm. LV function was calculated as ejection fraction (EF) or fractional shortening (FS).
Tissue samples were homogenized in QIAzol lysis reagent (Qiagen, 79306) with a TissueLyser (Qiagen). […] Quantitative real-time PCR (qPCR) was performed with either the TaqMan method (Roche Universal ProbeLibrary System) or the SYBR green method on a ViiA 7 Real-Time PCR System (Applied Biosystems). […]

T1 sequence (P51683 whole entry): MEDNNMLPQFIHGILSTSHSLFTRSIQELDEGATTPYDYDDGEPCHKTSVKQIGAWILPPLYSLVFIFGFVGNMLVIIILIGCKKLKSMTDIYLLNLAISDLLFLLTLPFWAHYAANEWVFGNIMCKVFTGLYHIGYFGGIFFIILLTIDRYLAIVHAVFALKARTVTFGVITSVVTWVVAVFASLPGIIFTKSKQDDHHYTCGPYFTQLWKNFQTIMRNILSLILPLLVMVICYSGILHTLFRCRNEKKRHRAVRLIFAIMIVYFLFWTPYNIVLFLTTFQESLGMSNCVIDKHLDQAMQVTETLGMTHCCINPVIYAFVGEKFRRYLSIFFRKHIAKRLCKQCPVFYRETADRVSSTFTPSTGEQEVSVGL

## Cc1ccc2c(c1)C1(CCN(CCc3nc(-c4ccccc4)oc3C)CC1)OC(=O)N2 [RS-504393]
CCR2 [1]
  cardiac macrophage populations / numbers: no effect
CCR2 [1]; listed as RS
  cardiac macrophage populations / numbers: no impact
CCR2 [1]; before and after 1 wk post-TAC, echocardiography (FIG. 3A), listed as RS
  cardiac function / POH: no effect; also recorded: no impact
CCR2 [2]; RS oral administration 2 wk after TAC (FIG. 16)
  cardiac hypertrophy: without affecting cardiac hypertrophy
CCR2 [2]; RS oral administration 2 wk after TAC, to 6-week post-TAC (FIG. 16)
  cardiac function (LV function by echocardiography): preserved cardiac function
